This note sets out measurements from patent US20070213340A1, “Farnesyl protein transferase inhibitors” (priority 2006, published 2007).

Structures are written as SMILES.

The assay addresses farnesyl protein transferase (Homo sapiens, UniProt P49354+P49356). Kind of assay: FPT IC50 (inhibition of farnesyl protein transferase, in vitro enzyme assay). Format: biochemical. Conditions: procedure of WO 95/10516. The procedure:
FPT IC50 (inhibition of farnesyl protein transferase, in vitro enzyme assay) was determined, and COS Cell IC50 (Cell-Based Assay) could be determined following the assay procedures described in WO 95/10516, published Apr. 20, 1995. GGPT IC50 (inhibition of geranylgeranyl protein transferase, in vitro enzyme assay), Cell Mat Assay, and anti-tumor activity (in vivo anti-tumor studies) could be determined by the assay procedures described in WO 95/10516. The disclosure of WO 95/10516 is incorporated herein by reference thereto.
On to `CCOC(=O)CCCNC(=O)[C@H]1CN(C(=O)OC(C)(C)C)CCN1C1c2ccc(Cl)cc2CCc2cccnc21` (single isomer, unassigned) [compound 6, 4-(8-Chloro-6,11-dihydro-5H-benzo[5,6]cyclohepta[1,2-b]pyridin-11-yl)-3R-(3-ethoxycarbonyl-propylcarbamoyl)-piperazine-1-carboxylic acid tert-butyl ester], for which it took 5.2 nM to reach half-maximal inhibition (IC50).
Under `CC(C)(C)OC(=O)N1CCN(C2c3ccc(Cl)cc3CCc3cccnc32)[C@@H](C(=O)NCCCn2ccnc2)C1` (stereo partly drawn) [Compound 12, 4-(8-Chloro-6,11-dihydro-5H-benzo[5,6]cyclohepta[1,2-b]pyridin-11-yl)-3R-(3-imidazol-1-yl-propylcarbamoyl)-piperazine-1-carboxylic acid tert-butyl ester] stands 1.2 nM; under `CCOC(=O)CCCNC(=O)[C@H]1CN(C(=O)OC(C)(C)C)CCN1C1c2ccc(Cl)cc2CCc2cccnc21` (single isomer, unassigned) [compound 7, 4-(8-Chloro-6,11-dihydro-5H-benzo[5,6]cyclohepta[1,2-b]pyridin-11-yl)-3R-(3-ethoxycarbonyl-propylcarbamoyl)-piperazine-1-carboxylic acid tert-butyl ester], 5.5 nM; under `CC(C)(C)OC(=O)N1CCN(C2c3ccc(Cl)cc3CCc3cccnc32)[C@@H](C(=O)NCCCC(=O)O)C1` (single isomer, unassigned) [compound 8, 3R-(3-Carboxy-propylcarbamoyl)-4-(8-chloro-6,11-dihydro-5H-benzo[5,6]cyclohepta[1,2-b]pyridin-11-yl)-piperazine-1-carboxylic acid tert-butyl ester], 5.5 nM.
Under `CC(C)(C)OC(=O)N1CCN(C2c3ccc(Cl)cc3CCc3cccnc32)[C@@H](C(=O)NCCCC(=O)O)C1` (single isomer, unassigned) [compound 9, 3R-(3-Carboxy-propylcarbamoyl)-4-(8-chloro-6,11-dihydro-5H-benzo[5,6]cyclohepta[1,2-b]pyridin-11-yl)-piperazine-1-carboxylic acid tert-butyl ester] stands 6.3 nM.

As a reminder, the IC50 is the concentration at which inhibition is half-maximal. Read a high IC50 as weaker potency.
